{
  "source": "patent US4092420A",
  "about": "“Novel soft N-chloroamino alcohol derivatives exhibiting antibacterial activity” (INTERx Research Corporation, priority 1977, dated 1978)",
  "tested_on": "S. aureus",
  "test": "Contact germicidal efficiency (sterilization time)",
  "assay_type": "cell-based, Staphylococcus aureus",
  "settings": "Example Y, pH 4.6, in presence of horse serum, 468 ppm (80 PPMCl+)",
  "protocol": "CONTACT GERMICIDAL EFFICIENCY OF\n^a Time intervals screened 0.5, 1, 2, 3, 4 and 5 minutes.\n^a Time intervals screened 0.5, 1, 2, 3, 4, 5, 6, 7, 8, 9 and 10\n^a Time intervals screened 0.5, 1, 2, 3, 4, and 5 minutes.\n^b Time intervals screened 0.5, 1, 2, 3, 4, 5, 6, 7, 8, 9 and 10\nImmediately preceding the screen, the compound is weighed and diluted with a buffer or other solvent to give the final concentration desired. The buffer or solvent chosen depends on the conditions of the screen and could be one of the following: 0.1 M NaOAc, pH 4.6; 0.1 M NaH2 PO4, pH 7.0; 0.1 M Na2 B4 O7, pH 8.8; 35% methanol in one of the aforementioned buffers; 10% Triton × 100 in buffer, etc.\nThe positive chlorine concentration of the test solution is then determined iodometrically.\nMedia used for the Screen are Nutrient Broth, BBL# 11479 and Nutrient Agar, BBL# 11472 prepared according to label directions. The broth is dispensed in 75 ml amounts of flasks for overnight cultures and in 5 ml amounts to culture tubes for subculturing during the Screen. Agar plates are prepared as usual. […]\nA 0.2 ml portion of the overnight culture is inoculated into 5 ml of 0.9% NaCl for use in controls. […] The earliest subculture time at which no growth is present in the subculture tube is considered the endpoint and is recorded as that time, e.g., 7 minutes. […]",
  "data": [
    {"smiles": "CC(C)(COC(=O)C(C)(C)C)NCl", "note": "[IV c, 2-N-Chloroamino-2-methyl-1-propyl 2,2-dimethylproprionate]", "values": [
      {"measurement": "Sterilization Time", "value": "> 10", "unit": "min"}
    ]}
  ]
}
